# According to PMC4546618, “Casitas B-Lineage Lymphoma RING Domain Inhibitors Protect Mice against High-Fat Diet-Induced Obesity and Insulin Resistance” (PLoS ONE, 2015):
# *1 amine or outer side, *2 acyl side, *3 side chain or, on linkers, in order; H or OH if unused. Where a SMILES comes first, the peptide text is derived from it. [ ]: non-standard residue; d: D form. Phe(4-NO2) = N[C@@H](Cc1ccc([N+](=O)[O-])cc1)C(=O)O; Phe(4-N3) = [N-]=[N+]=Nc1ccc(C[C@H](N)C(=O)O)cc1; X2 = CC(=O)CN(CCCC[C@H](N[*:1])C(=O)[*:2])C(C)=O; Phe(4-CF3) = N[C@@H](Cc1ccc(C(F)(F)F)cc1)C(=O)O; Pro(trans-4-F) = O=C(O)[C@@H]1C[C@@H](F)CN1; X1 = CC(=O)N(O)CCCC[C@H](N[*:1])C(=O)[*:2]; Phe(4-NH2) = Nc1ccc(C[C@H](N)C(=O)O)cc1; Phe(3-F) = N[C@@H](Cc1cccc(F)c1)C(=O)O; Phe(3-Me) = Cc1cccc(C[C@H](N)C(=O)O)c1; Phe(4-F) = N[C@@H](Cc1ccc(F)cc1)C(=O)O; Phe(2-Me) = Cc1ccccc1C[C@H](N)C(=O)O; Cha = N[C@@H](CC1CCCCC1)C(=O)O; ΔPro = O=C(O)[C@@H]1C=CCN1; Pip = O=C(O)[C@@H]1CCCCN1; Thz = O=C(O)[C@@H]1CSCN1; Aze = O=C(O)[C@@H]1CCN1
# Target: T1, Cbl (RING) protein (Homo sapiens, UniProt P22681)
# T1 construct: including the linker and RING domain (codon 358–457); GST (Glutathione S-Transferase); made in house
# T1 sequence (P22681 358-457): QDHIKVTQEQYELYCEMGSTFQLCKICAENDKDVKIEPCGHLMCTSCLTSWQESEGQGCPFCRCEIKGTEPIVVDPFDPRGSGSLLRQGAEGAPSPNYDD
# Test: Fluorescence polarization (FP) assay, competition with FITC-βA-PFKPP-NH2 probe
# Assay type: binding
# Details: probe FITC-βA-PFKPP-NH2 100 nmol/L, Cbl (RING) protein 3 μmol/L, PBS pH 7.4
# Procedure: Peptides and peptide mimetics were purchased from MitenChem (China) with a purity ≥ 98%. Concentrations values of reconstituted peptides were determined by amino acid analysis at the protein core facility (Chengdu Medical College). The recombinant Cbl protein was produced by the Chengdu Medical College Protein Core Facility and was described previously. The c-Cbl (RING) protein, including the linker and RING domain (codon 358–457), was tagged with Glutathione S-Transferase (GST) and purified with GSH-Sepharose (Shanghai Biopharma).
# The FP assay was developed and validated previously. Briefly, fluorescein-labeled probe (FITC-βA-PFKPP-NH2, 100 nmol/L) and Cbl (RING) protein (3 μmol/L) were mixed and diluted to the final concentration using 0.01% Triton X-100 in PBS (pH = 7.4). Then, 19 μl of this master mix was loaded to each reaction well. The peptides or peptide mimetics were then loaded to the designated wells (1 μl, 10 μmol/L– 0.078 μmol/L, half-fold dilutions). The total fluorescence and polarization values were measured at an excitation wavelength of 485 nm and an emission wavelength of 538 nm using a ZS-2 plate reader. The data was fitted, and the ΔmP, Kd, and Ki values were estimated, using SigmaPlot 11.0.
row,Ki [µM],SMILES
1,> 250,"CC(=O)N1CCC[C@H]1C(=O)N[C@@H](Cc1cccc(F)c1)C(=O)N[C@@H](CCCCN)C(=O)N1CC[C@H]1C(=O)N1CCC[C@H]1C(N)=O [Peptide 26, Ac-P(h)K(q)P-NH2] (Ac-P[Phe(3-F)]K[Aze]P-NH2)"
2,4.5 ± 1,"CC(=O)N1CCC[C@H]1C(=O)N[C@@H](Cc1cccc(C)c1)C(=O)N[C@@H](CCCCN)C(=O)N1CCC[C@H]1C(=O)N1CCC[C@H]1C(N)=O [Peptide 7, Ac-P(e)KPP-NH2] (Ac-P[Phe(3-Me)]KPP-NH2)"
3,21.6 ± 2.6,"CC(=O)N(O)CCCC[C@H](NC(=O)[C@H](Cc1cccc(F)c1)NC(=O)[C@@H]1CSCN1C(C)=O)C(=O)N1CCC[C@H]1C(=O)N1CCC[C@H]1C(N)=O [Peptide 38, Ac-(r) (h) (v)PP-NH2] (Ac-[Thz][Phe(3-F)][X1]PP-NH2)"
4,51.8 ± 0.8,"CC(=O)N[C@@H](CCCCN(O)C(C)=O)C(=O)N1CCC[C@H]1C(=O)N[C@@H](C)C(=O)N[C@H](C(=O)N[C@@H](CCCCN)C(N)=O)[C@@H](C)O [Peptide 40, Ac-(v)PATK-NH2] (Ac-[X1]PATK-NH2)"
5,136 ± 11.2,"CC(=O)N1CCC[C@H]1C(=O)N[C@@H](Cc1cccc(F)c1)C(=O)N[C@@H](CCCCN)C(=O)N1CCCC[C@H]1C(=O)N1CCC[C@H]1C(N)=O [Peptide 28, Ac-P(h)K(s)P-NH2] (Ac-P[Phe(3-F)]K[Pip]P-NH2)"
6,31.2 ± 0.4,"CC(=O)N1CCC[C@H]1C(=O)N[C@@H](Cc1cccc(F)c1)C(=O)N[C@@H](CCCCN)C(=O)N1CCC[C@H]1C(=O)N1C[C@H](F)C[C@H]1C(N)=O [Peptide 22, Ac-P(h)KP(t)-NH2] (Ac-P[Phe(3-F)]KP[Pro(trans-4-F)]-NH2)"
7,4.5 ± 0.8,"CC(=O)N1CCC[C@H]1C(=O)N[C@@H](Cc1ccc(N)cc1)C(=O)N[C@@H](CCCCN)C(=O)N1CCC[C@H]1C(=O)N1CCC[C@H]1C(N)=O [Peptide 12, Ac-P(j)KPP-NH2] (Ac-P[Phe(4-NH2)]KPP-NH2)"
8,125 ± 12.6,"CC(=O)N1CCC[C@H]1C(=O)N[C@@H](CC1CCCCC1)C(=O)N[C@@H](CCCCN)C(=O)N1CCC[C@H]1C(=O)N1CCC[C@H]1C(N)=O [Peptide 5, Ac-P(c)KPP-NH2] (Ac-P[Cha]KPP-NH2)"
9,8.4 ± 0.4,"CC(=O)N1CCC[C@H]1C(=O)N[C@@H](Cc1ccc(N=[N+]=[N-])cc1)C(=O)N[C@@H](CCCCN)C(=O)N1CCC[C@H]1C(=O)N1CCC[C@H]1C(N)=O [Peptide 15, Ac-P(m)KPP-NH2] (Ac-P[Phe(4-N3)]KPP-NH2)"
10,59.8 ± 6.5,"CC(=O)N[C@@H](CCCCN)C(=O)N1CCC[C@H]1C(=O)N[C@@H](C)C(=O)N[C@H](C(=O)N[C@@H](CCCCN(O)C(C)=O)C(N)=O)[C@@H](C)O [Peptide 42, Ac-KPAT(v)-NH2] (Ac-KPAT[X1]-NH2)"
11,12.5 ± 0.9,"CC(=O)N1CCC[C@H]1C(=O)N[C@@H](Cc1cccc(F)c1)C(=O)N[C@@H](CCCCN)C(=O)N1CCC[C@H]1C(=O)N1CCC[C@@H]1C(N)=O [Peptide 17, Ac-P(h)KP(o)-NH2] (Ac-P[Phe(3-F)]KP[dP]-NH2)"
12,14.5 ± 2.9,"CC(=O)N1C[C@H](F)C[C@H]1C(=O)N[C@@H](Cc1cccc(F)c1)C(=O)N[C@@H](CCCCN)C(=O)N1CCC[C@H]1C(=O)N1CCC[C@H]1C(N)=O [Peptide 36, Ac-(t) (h)KPP-NH2] (Ac-[Pro(trans-4-F)][Phe(3-F)]KPP-NH2)"
13,2.4 ± 0.5,"CC(=O)N1CCC[C@H]1C(=O)N[C@@H](Cc1ccc(F)cc1)C(=O)N[C@@H](CCCCN)C(=O)N1CCC[C@H]1C(=O)N1CCC[C@H]1C(N)=O [Peptide 11, Ac-P(i)KPP-NH2] (Ac-P[Phe(4-F)]KPP-NH2)"
14,122 ± 9.8,"CC(=O)N1CCCC[C@H]1C(=O)N[C@@H](Cc1cccc(F)c1)C(=O)N[C@@H](CCCCN)C(=O)N1CCC[C@H]1C(=O)N1CCC[C@H]1C(N)=O [Peptide 35, Ac-(s) (h)KPP-NH2] (Ac-[Pip][Phe(3-F)]KPP-NH2)"
15,10.2 ± 1.5,"CC(=O)N1CCC[C@H]1C(=O)N[C@@H](Cc1ccccc1C)C(=O)N[C@@H](CCCCN)C(=O)N1CCC[C@H]1C(=O)N1CCC[C@H]1C(N)=O [Peptide 6, Ac-P(d)KPP-NH2] (Ac-P[Phe(2-Me)]KPP-NH2)"
16,126 ± 3.2,"CC(=O)N[C@@H](CCCCN)C(=O)N1C[C@H](F)C[C@H]1C(=O)N[C@@H](C)C(=O)N[C@H](C(=O)N[C@@H](CCCCN)C(N)=O)C(C)C [Peptide 58, Ac-K(t)AVK-NH2] (Ac-K[Pro(trans-4-F)]AVK-NH2)"
17,25.4 ± 0.7,"CC(=O)N1CCC[C@H]1C(=O)N[C@@H](Cc1ccc(C(F)(F)F)cc1)C(=O)N[C@@H](CCCCN)C(=O)N1CCC[C@H]1C(=O)N1CCC[C@H]1C(N)=O [Peptide 14, Ac-P(l)KPP-NH2] (Ac-P[Phe(4-CF3)]KPP-NH2)"
18,44.3 ± 13.2,"CC(=O)N[C@@H](CCCCN)C(=O)N1CC=C[C@H]1C(=O)N[C@@H](C)C(=O)N[C@H](C(=O)N[C@@H](CCCCN)C(N)=O)[C@@H](C)O [Peptide 47, Ac-K(p)ATK-NH2] (Ac-K[ΔPro]ATK-NH2)"
19,15.4 ± 0.4,"CC(=O)N1CCC[C@H]1C(=O)N[C@H](Cc1ccccc1)C(=O)N[C@@H](CCCCN)C(=O)N1CCC[C@H]1C(=O)N1CCC[C@H]1C(N)=O [Peptide 16, Ac-P(n)KPP-NH2] (Ac-P[dF]KPP-NH2)"
20,32.6 ± 10.9,"CC(=O)N[C@@H](CCCCN)C(=O)N1CCCC[C@H]1C(=O)N[C@@H](C)C(=O)N[C@H](C(=O)N[C@@H](CCCCN)C(N)=O)[C@@H](C)O [Peptide 50, Ac-K(s)ATK-NH2] (Ac-K[Pip]ATK-NH2)"
21,201 ± 14.4,"CC(=O)N[C@@H](CCCCN)C(=O)N1CSC[C@H]1C(=O)N[C@H](C(=O)N[C@H](C(=O)N[C@@H](CCCCN)C(N)=O)[C@@H](C)O)[C@@H](C)O [Peptide 54, Ac-K(r)TTK-NH2] (Ac-K[Thz]TTK-NH2)"
22,96.2 ± 12.6,"CC(=O)CN(CCCC[C@H](NC(C)=O)C(=O)N1CCC[C@H]1C(=O)N[C@@H](C)C(=O)N[C@H](C(=O)N[C@@H](CCCCN)C(N)=O)[C@@H](C)O)C(C)=O [Peptide 41, Ac-(w)PATK-NH2] (Ac-[X2]PATK-NH2)"
23,90.9 ± 0.7,"CC(=O)N1CCC[C@H]1C(=O)N[C@@H](Cc1cccc(F)c1)C(=O)N[C@@H](CCCCN)C(=O)N1CCC[C@H]1C(=O)N1CCCC[C@H]1C(N)=O [Peptide 21, Ac-P(h)KP(s)-NH2] (Ac-P[Phe(3-F)]KP[Pip]-NH2)"
24,4.2 ± 0.4,"CC(=O)N1CCC[C@H]1C(=O)N[C@@H](Cc1ccc([N+](=O)[O-])cc1)C(=O)N[C@@H](CCCCN)C(=O)N1CCC[C@H]1C(=O)N1CCC[C@H]1C(N)=O [Peptide 13, Ac-P(k)KPP-NH2] (Ac-P[Phe(4-NO2)]KPP-NH2)"
25,> 250,"CC(=O)N1CC[C@H]1C(=O)N[C@@H](Cc1cccc(F)c1)C(=O)N[C@@H](CCCCN)C(=O)N1CCC[C@H]1C(=O)N1CCC[C@H]1C(N)=O [Peptide 33, Ac-(q) (h)KPP-NH2] (Ac-[Aze][Phe(3-F)]KPP-NH2)"
26,126 ± 22.6,"CC(=O)CN(CCCC[C@H](NC(=O)[C@@H](NC(=O)[C@H](C)NC(=O)[C@@H]1CCCN1C(=O)[C@H](CCCCN(O)C(C)=O)NC(C)=O)[C@@H](C)O)C(N)=O)C(C)=O [Peptide 44, Ac-(v)PAT(w)-NH2]"
27,226 ± 22.5,"CC(=O)N[C@@H](CCCCN)C(=O)N1CSC[C@H]1C(=O)N[C@@H](CC(C)C)C(=O)N[C@H](C(=O)N[C@@H](CCCCN)C(N)=O)[C@@H](C)O [Peptide 56, Ac-K(r)LTK-NH2] (Ac-K[Thz]LTK-NH2)"
28,145 ± 18.3,"CC[C@H](C)[C@H](NC(=O)[C@H](C)NC(=O)[C@@H]1C[C@@H](F)CN1C(=O)[C@H](CCCCN)NC(C)=O)C(=O)N[C@@H](CCCCN)C(N)=O [Peptide 59, Ac-K(t)AIK-NH2] (Ac-K[Pro(trans-4-F)]AIK-NH2)"
